The source made the active and inactive calls. The calls are words filed in the database; no cut-off is given here.
Tested on: Staphylococcus aureus
Test: Antibacterial activity against Staphylococcus aureus at 1 mg/ml
Type: functional, organism-based

## C[C@H](CO)[C@H]1CC[C@]2(C)C[C@@H]3[C@H](CO)C[C@@H](O)[C@H]3[C@@](C)(O)C/C=C/12
  Activity: inactive

From ChEMBL document CHEMBL1765078, “17-Hydroxycyclooctatin, a fused 5-8-5 ring diterpene, from Streptomyces sp. MTE4a” (J Nat Prod, 2011)
